Data reported in patent US12187773B2, “Modified GIP peptide analogues” (Antag Therapeutics ApS, priority 2018, dated 2025).
Where a SMILES comes first, the peptide text is derived from it. The star is where a group is joined. C16 diacid = O=C(O)CCCCCCCCCCCCCCC(=O)*

Key:
Assay type in all cases: cell-based
[1] = molecular target: T1, human GIP receptor (Homo sapiens, UniProt P48546); assay: cAMP antagonism (CisBio cAMP Dynamic 2 HTRF assay); design: pCMV-Script vector; settings: CisBio, HEK-293 cells; for IC50: cAMP antagonism, agonist GIP1-42 at EC50
T1 sequence (P48546 22-466): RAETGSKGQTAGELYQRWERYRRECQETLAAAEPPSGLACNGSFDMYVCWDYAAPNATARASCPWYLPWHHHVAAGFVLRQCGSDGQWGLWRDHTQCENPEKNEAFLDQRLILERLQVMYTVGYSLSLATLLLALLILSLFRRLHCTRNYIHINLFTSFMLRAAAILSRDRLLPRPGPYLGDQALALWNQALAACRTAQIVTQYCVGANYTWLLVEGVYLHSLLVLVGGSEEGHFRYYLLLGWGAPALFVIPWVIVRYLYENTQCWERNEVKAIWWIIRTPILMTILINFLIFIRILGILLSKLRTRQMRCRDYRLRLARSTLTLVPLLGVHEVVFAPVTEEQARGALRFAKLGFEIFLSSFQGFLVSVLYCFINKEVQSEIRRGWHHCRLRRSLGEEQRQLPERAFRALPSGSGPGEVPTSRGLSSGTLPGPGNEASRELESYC
Experimental: The in vitro functional activity of compounds towards human GIP receptor can also be determined in HEK-293 cells transiently expressing the receptor. On the day of the assay, cells were resuspended in HBSS buffer (Gibco, 14025-50) supplemented with 20 mM HEPES (Gibco, 15630-106), 0,1% Pluronic F-68 (Gibco, 24040-032) and 0,1% casein (Sigma, C4765), and plated in 384-well plates at a density of 5000 cells/well. The GIP peptide analogues of the present disclosure were diluted in HBSS buffer supplemented with 20 mM HEPES, 0,1% pluronic, 0,1% casein and 500 uM IBMX. […] The resulting decrease in intracellular cAMP was quantitatively determined using the CisBio cAMP Dynamic 2 HTRF Assay Kit. The assay is based on a competition between native cAMP produced by cells and cAMP labeled with the dye d2 for binding to a cryptate labeled antibody. The specific signal (i.e. energy transfer signal) is inversely proportional to the concentration of cAMP in the sample.
The cAMP-d2 conjugate and the antibody anti-cAMP-Cryptate, both diluted in lysis buffer provided in the kit, were added to the cells according to the manufacturer's protocol. The resulting competitive assay was incubated for 60 minutes at room temperature, and the signal was detected by using a PerkinElmer Envision® instrument with excitation at 320 nm and emission at 665 nm and 620 nm. The HTRF ratio (emission at 665 nm/620 nm*10,000) is inversely proportional to the amount of cAMP present and is converted to nM cAMP per well using a cAMP standard curve. The dose-response curves were fitted using the non-linear regression analysis (four-logistic parameter equation) in GraphPad Prism, whereby pIC50 values were estimated.

[2] = molecular target: T1, human GIP receptor; assay: cAMP agonism (CisBio cAMP Dynamic 2 HTRF assay); settings: HEK293, read-out: cAMP agonism, % Efficacy, Table 1C, HEK-293 cells
Experimental: To test for agonistic properties at the GIP receptor, compounds were diluted and added to cells as described above and incubated for 30 min at 37° C. The resulting increase in intracellular cAMP was determined using the CisBio cAMP Dynamic 2 HTRF Assay Kit as described above.

[3] = molecular target: T1, human GIP receptor; assay: cAMP accumulation, agonism (DiscoveRx HitHunter cAMP XS assay); design: host or cells: COS-7 (transient, calcium phosphate; pCMV-Script vector); settings: COS-7, read-out: cAMP agonism, Emax
Experimental: Transient transfected COS-7 cells expressing the human GIP receptor were seeded in white 96-well plates with a density of 3.5*10^4/well. The day after, the cells were washed twice with Hepes buffered saline (HBS) buffer and incubated with HBS and 1 mM 3-isobutyl-1-methylxanthine (IBMX) for 30 min at 37° C. To test for agonistic properties, ligands were added and incubated for 30 min at 37° C. In order to test for antagonistic properties, the cells were preincubated with the antagonists for 10 min prior to the addition of the agonist and subsequent incubated for 20 additional min. The HitHunter™ cAMP XS assay (DiscoveRx) was carried out according to the manufacturer's instructions.
In order to develop a GIP receptor antagonist with improved antagonistic properties, individual amino acid substitutions were conducted on GIP(3-30)NH2 and in particular at positions: 16, 18, 30 or 3, 16, 18, 30. The obtained peptides were lipidated at position 18 directly or via a linker. Both the agonistic and antagonistic profiles of the compounds were tested in cAMP accumulation experiments done in transiently transfected COS-7 cells expressing the human GIP receptor. To investigate if these mutated analogues still retained their antagonistic properties, their ability to inhibit a GIP-mediated cAMP response corresponding to 50-80% of maximum activation was examined.

SMILES	cAMP antagonism, % inhib ([1]; Table 1C) [%]	IC50 ([1]; nM (IC50), Table 1C) [nM]	Emax [2] [%]	Emax [3] [%]	IC50 ([1]; pIC50, Table 1C) [nM]
CC[C@H](C)[C@H](NC(=O)[C@H](CO)NC(=O)[C@H](Cc1ccc(O)cc1)NC(=O)[C@H](CC(=O)O)NC(=O)[C@H](CO)NC(=O)[C@@H](NC(=O)[C@H](Cc1ccccc1)NC(=O)[C@@H](NC(=O)CNC(=O)[C@@H](N)CO)[C@@H](C)O)[C@@H](C)CC)C(=O)N[C@@H](C)C(=O)N[C@@H](CCSC)C(=O)N[C@@H](CC(=O)O)C(=O)N[C@@H](CCCNC(=N)N)C(=O)N[C@H](C(=O)N[C@@H](CCCCNC(=O)CC[C@H](NC(=O)CCCCCCCCCCCCCCC(=O)O)C(=O)O)C(=O)N[C@@H](CCC(N)=O)C(=O)N[C@@H](CCC(N)=O)C(=O)N[C@@H](CC(=O)O)C(=O)N[C@@H](Cc1ccccc1)C(=O)N[C@H](C(=O)N[C@@H](CC(N)=O)C(=O)N[C@@H](Cc1c[nH]c2ccccc12)C(=O)N[C@@H](CC(C)C)C(=O)N[C@@H](CC(C)C)C(=O)N[C@@H](C)C(=O)N[C@@H](CCC(N)=O)C(=O)N[C@@H](CCCNC(=N)N)C(=O)O)C(C)C)[C@@H](C)CC [AT265] (HELM PEPTIDE1{S.G.T.F.I.S.D.Y.S.I.A.M.D.R.I.K.Q.Q.D.F.V.N.W.L.L.A.Q.R}|PEPTIDE2{[O=C(O)CCCCCCCCCCCCCCC(=O)[*:2]].[gGlu]}$PEPTIDE1,PEPTIDE2,16:R3-2:R2$$$V2.0; N-terminus assumed)	73	58.4	8	10	–
CC[C@H](C)[C@H](NC(=O)[C@H](CO)NC(=O)[C@H](Cc1ccc(O)cc1)NC(=O)[C@H](CC(=O)O)NC(=O)[C@H](CO)NC(=O)[C@@H](NC(=O)[C@H](Cc1ccccc1)NC(=O)[C@@H](NC(=O)CNC(=O)[C@@H]1CCCN1)[C@@H](C)O)[C@@H](C)CC)C(=O)N[C@@H](C)C(=O)N[C@@H](CCSC)C(=O)N[C@@H](CC(=O)O)C(=O)N[C@@H](CCCNC(=N)N)C(=O)N[C@H](C(=O)N[C@@H](CCCCNC(=O)CCCCCCCCCCCCCCC(=O)O)C(=O)N[C@@H](CCC(N)=O)C(=O)N[C@@H](CCC(N)=O)C(=O)N[C@@H](CC(=O)O)C(=O)N[C@@H](Cc1ccccc1)C(=O)N[C@H](C(=O)N[C@@H](CC(N)=O)C(=O)N[C@@H](Cc1c[nH]c2ccccc12)C(=O)N[C@@H](CC(C)C)C(=O)N[C@@H](CC(C)C)C(=O)N[C@@H](C)C(=O)N[C@@H](CCC(N)=O)C(=O)N[C@@H](CCCNC(=N)N)C(=O)O)C(C)C)[C@@H](C)CC [AT261] (H-PGTFISDYSIAMDRIK(C16 diacid)QQDFVNWLLAQR-OH; N-terminus assumed)	62	200	0	24	–
CC[C@H](C)[C@H](NC(=O)[C@H](CO)NC(=O)[C@H](Cc1ccc(O)cc1)NC(=O)[C@H](CC(=O)O)NC(=O)[C@H](CO)NC(=O)[C@@H](NC(=O)[C@H](Cc1ccccc1)NC(=O)[C@@H](NC(=O)CNC(=O)[C@@H](N)CO)[C@@H](C)O)[C@@H](C)CC)C(=O)N[C@@H](C)C(=O)N[C@@H](CCSC)C(=O)N[C@@H](CC(=O)O)C(=O)N[C@@H](CCCNC(=N)N)C(=O)N[C@H](C(=O)N[C@@H](CCCCNC(=O)COCCOCCNC(=O)CC[C@H](NC(=O)CCCCCCCCCCCCCCC(=O)O)C(=O)O)C(=O)N[C@@H](CCC(N)=O)C(=O)N[C@@H](CCC(N)=O)C(=O)N[C@@H](CC(=O)O)C(=O)N[C@@H](Cc1ccccc1)C(=O)N[C@H](C(=O)N[C@@H](CC(N)=O)C(=O)N[C@@H](Cc1c[nH]c2ccccc12)C(=O)N[C@@H](CC(C)C)C(=O)N[C@@H](CC(C)C)C(=O)N[C@@H](C)C(=O)N[C@@H](CCC(N)=O)C(=O)N[C@@H](CCCNC(=N)N)C(=O)O)C(C)C)[C@@H](C)CC [AT271] (HELM PEPTIDE1{S.G.T.F.I.S.D.Y.S.I.A.M.D.R.I.K.Q.Q.D.F.V.N.W.L.L.A.Q.R}|PEPTIDE2{[O=C(O)CCCCCCCCCCCCCCC(=O)[*:2]].[gGlu].[O=C(COCCOCCN[*:1])[*:2]]}$PEPTIDE1,PEPTIDE2,16:R3-3:R2$$$V2.0; N-terminus assumed)	73	85.8	2	9	–
CC[C@H](C)[C@H](NC(=O)[C@H](CO)NC(=O)[C@H](Cc1ccc(O)cc1)NC(=O)[C@H](CC(=O)O)NC(=O)[C@H](CO)NC(=O)[C@@H](NC(=O)[C@H](Cc1ccccc1)NC(=O)[C@@H](NC(=O)CNC(=O)CN)[C@@H](C)O)[C@@H](C)CC)C(=O)N[C@@H](C)C(=O)N[C@@H](CCSC)C(=O)N[C@@H](CC(=O)O)C(=O)N[C@@H](CCCNC(=N)N)C(=O)N[C@H](C(=O)N[C@@H](CCCCNC(=O)CC[C@H](NC(=O)CCCCCCCCCCCCCCC(=O)O)C(=O)O)C(=O)N[C@@H](CCC(N)=O)C(=O)N[C@@H](CCC(N)=O)C(=O)N[C@@H](CC(=O)O)C(=O)N[C@@H](Cc1ccccc1)C(=O)N[C@H](C(=O)N[C@@H](CC(N)=O)C(=O)N[C@@H](Cc1c[nH]c2ccccc12)C(=O)N[C@@H](CC(C)C)C(=O)N[C@@H](CC(C)C)C(=O)N[C@@H](C)C(=O)N[C@@H](CCC(N)=O)C(=O)N[C@@H](CCCNC(=N)N)C(=O)O)C(C)C)[C@@H](C)CC [AT263] (HELM PEPTIDE1{G.G.T.F.I.S.D.Y.S.I.A.M.D.R.I.K.Q.Q.D.F.V.N.W.L.L.A.Q.R}|PEPTIDE2{[O=C(O)CCCCCCCCCCCCCCC(=O)[*:2]].[gGlu]}$PEPTIDE1,PEPTIDE2,16:R3-2:R2$$$V2.0; N-terminus assumed)	69	21	0	8	200
CC[C@H](C)[C@H](NC(=O)[C@H](CO)NC(=O)[C@H](Cc1ccc(O)cc1)NC(=O)[C@H](CC(=O)O)NC(=O)[C@H](CO)NC(=O)[C@@H](NC(=O)[C@H](Cc1ccccc1)NC(=O)[C@@H](NC(=O)CNC(=O)[C@@H]1CCCN1)[C@@H](C)O)[C@@H](C)CC)C(=O)N[C@@H](C)C(=O)N[C@@H](CCSC)C(=O)N[C@@H](CC(=O)O)C(=O)N[C@@H](CCCNC(=N)N)C(=O)N[C@H](C(=O)N[C@@H](CCCCNC(=O)CC[C@H](NC(=O)CCCCCCCCCCCCCCC(=O)O)C(=O)O)C(=O)N[C@@H](CCC(N)=O)C(=O)N[C@@H](CCC(N)=O)C(=O)N[C@@H](CC(=O)O)C(=O)N[C@@H](Cc1ccccc1)C(=O)N[C@H](C(=O)N[C@@H](CC(N)=O)C(=O)N[C@@H](Cc1c[nH]c2ccccc12)C(=O)N[C@@H](CC(C)C)C(=O)N[C@@H](CC(C)C)C(=O)N[C@@H](C)C(=O)N[C@@H](CCC(N)=O)C(=O)N[C@@H](CCCNC(=N)N)C(=O)O)C(C)C)[C@@H](C)CC [AT267] (HELM PEPTIDE1{P.G.T.F.I.S.D.Y.S.I.A.M.D.R.I.K.Q.Q.D.F.V.N.W.L.L.A.Q.R}|PEPTIDE2{[O=C(O)CCCCCCCCCCCCCCC(=O)[*:2]].[gGlu]}$PEPTIDE1,PEPTIDE2,16:R3-2:R2$$$V2.0; N-terminus assumed)	52	–	4	16	–
